Source: patent publication US20230112279A1, “DETERGENT COMPOSITION” (Conopco, Inc., d/b/a UNILEVER, priority 2020, published 2023)

Legend:
Lipex 100 L lipase [1] = target: T1, Lipex 100 L lipase (Thermomyces lanuginosus, UniProt O59952, N255R/T253R); test: Biochemical determination of lipase activity (4-nitrophenyl ester hydrolysis, 405 nm) with Lipex 100 L; settings: for Lipex 100L activity in the presence of saponins: 10 ng/mL lipase; for activation of Lipex 100 L: saponin at fixed concentration of 10 μM, FIG. 3; for % increase in Lipase activity in the presence of escin saponin compared to absence of saponin: Lipex 100L
T1 construct: purchased Novozymes
T1 sequence (O59952 23-291 T253R/N255R): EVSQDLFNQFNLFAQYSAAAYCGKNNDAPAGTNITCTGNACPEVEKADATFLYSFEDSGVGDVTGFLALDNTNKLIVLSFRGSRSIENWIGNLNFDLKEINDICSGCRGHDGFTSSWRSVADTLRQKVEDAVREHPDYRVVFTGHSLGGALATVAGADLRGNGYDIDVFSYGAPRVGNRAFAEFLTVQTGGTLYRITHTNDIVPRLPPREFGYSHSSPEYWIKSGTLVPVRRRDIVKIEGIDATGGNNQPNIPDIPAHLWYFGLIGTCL
Experimental: (§1) Lipase activity was determined by a colorimetric method using 4-nitrophenyl-valerate (C5) and 4-nitrophenyl-dodecanoate (C12) as substrates. 4-nitrophenyl-dodecanoate (25 mg) or 4-nitrophenyl-valerate (18 mg) were dissolved in 10 mL solvent (methanol) to prepare 8 mM stock solutions. 1 mL of stock solution was added in 7 mL of acidified water (pH 4.5), to give a final concentration of 1 mM (the substrate). In 96-well microtitre plates the following reagents were added: 60 μL dH2O, 80 μL Tris-HCl buffer (pH 8.5, 50 mM), 20 μL of diluted enzyme solution, 20 μL of saponin 10× concentrated stock solution. 20 μL substrate was then added to start the reaction. For zero enzyme controls, enzyme solution was replaced with H2O. Following the addition of substrate, the release of product (4-nitrophenol) was monitored at 405 nm for 15 min at ambient temperature in a Varioskan plate reader.
(§2) The dose response of various lipases to saponins were tested in a biochemical assay. The concentration of lipase in these experiments was 10 μg/L. This level was chosen to ensure that substrate hydrolysis and resultant increase in absorbance measurements falls within the sensitivity of the spectrophotometer. […] In all cases, the lipase activity increased as the escin concentration reached above a threshold value, which varied according to the enzyme in question, but was in the region 0.01 (Resinase HT) to 0.10 μM (Lipex, 100 L, Lipex Evity and Novozyme 51032).
Activation of a single lipase (Lipex 100 L) by a variety of natural saponins and saponins derived through metabolic engineering were tested using the biochemical assay. The unglycosylated terpenoid, oleanolic acid (OA), was also tested to determine whether lipase activation was a result of the terpenoid moiety or required the terpenoid scaffold to be glycosylated. To compare this directly, the enzymes activation by saponins comprising oleanolic acid glycosylated with 3 or 4 glycoside residues at the C28 position of the triterpenoid (oleanolic acid-28-O-triglycoside (OA-28 x3Gly) and oleanolic acid-28-O-tetraglycoside (OA-28 x4Gly), were compared directly to the activation achieved by oleanolic acid.
Biochemical assays measuring lipase activity were initially used in high-throughput microtitre plate format to enable different saponins at different doses to be screened as potential inhibitors of Lipex 100 L lipase (Novozymes). Effective inhibitors are sought to prevent the lipase hydrolytic activity towards the soil release polymer which is typically observed. […] When using 10 ng/mL lipase ([…]) in this case (this level chosen to ensure that substrate hydrolysis and resultant increase in absorbance measurements falls within the sensitivity of the spectrophotometer) the typical saponin concentration required to inhibit the lipase was around 50-125 μM.

Lipex 100 L lipase [2] = target: T1, Lipex 100 L lipase; test: Inhibition of Lipex 100 L at fixed dose of 500 μM (Example 7, C12 pNP ester); type: biochemical; settings: fixed dose of 500 μM; for Lipex 100L lipase activity (inhibitory effect of various saponin derivatives): lipase 10 ng/mL final, 50 mM Tris pH 8.5, 25° C., C12 pNP ester 0.1 mM final, lipase-only control 0.0545; for lipase inhibition: Lipex 100 L 10 ng/mL, C12 pNP ester
Experimental: as §1
Various saponins were tested for their ability to inhibit Lipex 100 L lipase (10 ng/mL final). A buffer was used (50 mM Tris pH 8.5) and the experiments were carried out at 25° C. At a fixed dose of 500 μM a number of those tested were effective in lowering the lipase activity. The substrate used for testing as C12 pNP ester (0.1 mM final). These included glycosylated derivatives of oleanolic acid, avenacin, tea tree saponin as well as escin (table 4). Orlistat as a known inhibitor of lipase was also included for comparison (table 4).

Novozym 51032 = test: Biochemical determination of lipase activity with Novozym 51032; settings: lipase 10 μg/L; for % increase in Lipase activity in the presence of escin saponin compared to absence of saponin: Novozym 51032
Experimental: as §1, §2

Lipex Evity = test: Biochemical determination of lipase activity with Lipex Evity; settings: lipase 10 μg/L
Experimental: as §1, §2

Resinase HT = test: Biochemical determination of lipase activity with Resinase HT; settings: lipase 10 μg/L
Experimental: as §1, §2

CC1(C)[C@@H](O[C@H]2O[C@H](C(=O)O)[C@@H](O)[C@H](O)[C@H]2O[C@@H]2O[C@H](C(=O)O)[C@@H](O)[C@H](O)[C@H]2O)CC[C@]2(C)[C@H]3C(=O)C=C4[C@@H]5C[C@@](C)(C(=O)O)CC[C@]5(C)CC[C@@]4(C)[C@]3(C)CC[C@@H]12 [Glycyrrhizic acid]
Lipex 100L activity in the presence of saponins (Lipex 100 L lipase [1]; saponin dose 0.01 μM): 0.244 Δabs/min @405 nm
Lipex 100L activity in the presence of saponins (Lipex 100 L lipase [1]; saponin dose 0.1 μM): 0.252 Δabs/min @405 nm
Lipex 100L activity in the presence of saponins (Lipex 100 L lipase [1]; saponin dose 0.5 μM): 0.238 Δabs/min @405 nm
Lipex 100L activity in the presence of saponins (Lipex 100 L lipase [1]; saponin dose 10 μM): 0.221 Δabs/min @405 nm
Lipex 100L activity in the presence of saponins (Lipex 100 L lipase [1]; saponin dose 25 μM): 0.171 Δabs/min @405 nm
Lipex 100L activity in the presence of saponins (Lipex 100 L lipase [1]; saponin dose 50 μM): 0.135 Δabs/min @405 nm
Lipex 100L activity in the presence of saponins (Lipex 100 L lipase [1]; saponin dose 125 μM): 0.116 Δabs/min @405 nm
Lipex 100L activity in the presence of saponins (Lipex 100 L lipase [1]; saponin dose 250 μM): 0.083 Δabs/min @405 nm
Lipex 100L activity in the presence of saponins (Lipex 100 L lipase [1]; saponin dose 500 μM): 0.068 Δabs/min @405 nm

CC1(C)CC[C@]2(C(=O)O)CC[C@]3(C)C(=CC[C@@H]4[C@@]5(C)CC[C@H](O)C(C)(C)[C@@H]5CC[C@]43C)[C@@H]2C1 [Oleanolic acid, reference compound]
Lipex 100L lipase activity (inhibitory effect of various saponin derivatives) (Lipex 100 L lipase [2]): 0.0842 (±0.0084) abs/min @405 nm
activation of Lipex 100 L (Lipex 100 L lipase [1]): small activation

CCCCCCCCCCC[C@@H](C[C@@H]1OC(=O)[C@H]1CCCCCC)OC(=O)[C@H](CC(C)C)NC=O [Orlistat, reference compound]
Lipex 100L lipase activity (inhibitory effect of various saponin derivatives) (Lipex 100 L lipase [2]): −0.00032 (±0.0003) abs/min @405 nm

Avenacin
lipase inhibition (Lipex 100 L lipase [2]): complete inhibition
Lipex 100L lipase activity (inhibitory effect of various saponin derivatives) (Lipex 100 L lipase [2]): 0.0013 (±0.0006) abs/min @405 nm

Escin
% increase in Lipase activity in the presence of escin saponin compared to absence of saponin (Novozym 51032; saponin dose 0.01 μM): 0%
% increase in Lipase activity in the presence of escin saponin compared to absence of saponin (Novozym 51032; saponin dose 0.1 μM): 50%
% increase in Lipase activity in the presence of escin saponin compared to absence of saponin (Novozym 51032; saponin dose 0.5 μM): 50%
% increase in Lipase activity in the presence of escin saponin compared to absence of saponin (Novozym 51032; saponin dose 1 μM): 50%
% increase in Lipase activity in the presence of escin saponin compared to absence of saponin (Novozym 51032; saponin dose 2.5 μM): 150%
% increase in Lipase activity in the presence of escin saponin compared to absence of saponin (Novozym 51032; saponin dose 5 μM): 250%
threshold escin concentration above which lipase activity increased (Novozym 51032; Novozyme 51032): ~0.10 µM
threshold escin concentration above which lipase activity increased (Lipex Evity): ~0.10 µM
% increase in Lipase activity in the presence of escin saponin compared to absence of saponin (Lipex Evity; saponin dose 0.01 μM): 0%
% increase in Lipase activity in the presence of escin saponin compared to absence of saponin (Lipex Evity; saponin dose 0.1 μM): 20%
% increase in Lipase activity in the presence of escin saponin compared to absence of saponin (Lipex Evity; saponin dose 0.5 μM): 120%
% increase in Lipase activity in the presence of escin saponin compared to absence of saponin (Lipex Evity; saponin dose 1 μM): 200%
% increase in Lipase activity in the presence of escin saponin compared to absence of saponin (Lipex Evity; saponin dose 2.5 μM): 240%
% increase in Lipase activity in the presence of escin saponin compared to absence of saponin (Lipex Evity; saponin dose 5 μM): 260%
Lipex 100L lipase activity (inhibitory effect of various saponin derivatives) (Lipex 100 L lipase [2]): 0.0039 (±0.0027) abs/min @405 nm
ability to decrease lipase activity (in words) (Lipex 100 L lipase [1]; Lipex 100 L, Table 2 screen): decrease lipase activity to negligible levels
threshold escin concentration above which lipase activity increased (Lipex 100 L lipase [1]; Lipex 100 L, lipase 10 μg/L): ~0.10 µM
% increase in Lipase activity in the presence of escin saponin compared to absence of saponin (Lipex 100 L lipase [1]; saponin dose 0.01 μM, lipase 10 μg/L): −25%
% increase in Lipase activity in the presence of escin saponin compared to absence of saponin (Lipex 100 L lipase [1]; saponin dose 0.1 μM, lipase 10 μg/L): 25%
% increase in Lipase activity in the presence of escin saponin compared to absence of saponin (Lipex 100 L lipase [1]; saponin dose 0.5 μM, lipase 10 μg/L): 100%
% increase in Lipase activity in the presence of escin saponin compared to absence of saponin (Lipex 100 L lipase [1]; saponin dose 1 μM, lipase 10 μg/L): 450%
% increase in Lipase activity in the presence of escin saponin compared to absence of saponin (Lipex 100 L lipase [1]; saponin dose 2.5 μM, lipase 10 μg/L): 1650%
% increase in Lipase activity in the presence of escin saponin compared to absence of saponin (Lipex 100 L lipase [1]; saponin dose 5 μM, lipase 10 μg/L): 1775%
Lipex 100L activity in the presence of saponins (Lipex 100 L lipase [1]; saponin dose 0.01 μM): 0.257 Δabs/min @405 nm
Lipex 100L activity in the presence of saponins (Lipex 100 L lipase [1]; saponin dose 0.1 μM): 0.241 Δabs/min @405 nm
Lipex 100L activity in the presence of saponins (Lipex 100 L lipase [1]; saponin dose 0.5 μM): 0.247 Δabs/min @405 nm
Lipex 100L activity in the presence of saponins (Lipex 100 L lipase [1]; saponin dose 10 μM): 0.200 Δabs/min @405 nm
Lipex 100L activity in the presence of saponins (Lipex 100 L lipase [1]; saponin dose 25 μM): 0.204 Δabs/min @405 nm
Lipex 100L activity in the presence of saponins (Lipex 100 L lipase [1]; saponin dose 50 μM): 0.152 Δabs/min @405 nm
Lipex 100L activity in the presence of saponins (Lipex 100 L lipase [1]; saponin dose 125 μM): 0.006 Δabs/min @405 nm
Lipex 100L activity in the presence of saponins (Lipex 100 L lipase [1]; saponin dose 250 μM): 0.001 Δabs/min @405 nm
Lipex 100L activity in the presence of saponins (Lipex 100 L lipase [1]; saponin dose 500 μM): 0.001 Δabs/min @405 nm
threshold escin concentration above which lipase activity increased (Resinase HT): ~0.01 µM
% increase in Lipase activity in the presence of escin saponin compared to absence of saponin (Resinase HT; saponin dose 0.01 μM): 70%
% increase in Lipase activity in the presence of escin saponin compared to absence of saponin (Resinase HT; saponin dose 0.1 μM): 60%
% increase in Lipase activity in the presence of escin saponin compared to absence of saponin (Resinase HT; saponin dose 0.5 μM): 170%
% increase in Lipase activity in the presence of escin saponin compared to absence of saponin (Resinase HT; saponin dose 1 μM): 210%
% increase in Lipase activity in the presence of escin saponin compared to absence of saponin (Resinase HT; saponin dose 2.5 μM): 140%
% increase in Lipase activity in the presence of escin saponin compared to absence of saponin (Resinase HT; saponin dose 5 μM): 200%

oleanolic acid-28-O-tetraglycoside [OA-28 x4Gly]
lipase inhibition (Lipex 100 L lipase [2]): 80%
Lipex 100L lipase activity (inhibitory effect of various saponin derivatives) (Lipex 100 L lipase [2]): 0.0109 (±0.0006) abs/min @405 nm

oleanolic acid-28-O-triglycoside [OA-28 x3Gly]
lipase inhibition (Lipex 100 L lipase [2]): complete inhibition
Lipex 100L lipase activity (inhibitory effect of various saponin derivatives) (Lipex 100 L lipase [2]): −0.0011 (±0.0005) abs/min @405 nm
activation of Lipex 100 L (Lipex 100 L lipase [1]): greater than 20 fold
